According to patent US10357481B2 (MERCK SHARP & DOHME CORP., priority 2015, dated 2019):

These molecules were tested against T1, human PDE2A1 (Homo sapiens, UniProt O00408) (assay: IMAP FP PDE selectivity panel, human PDE2A1). Conditions: Lab B; read-out: Human PDE2 Ki (nM) Lab B.
T1 construct: GST; purchased BPS Bioscience (San Diego, Calif.) 60020; host or cells: insect cells
Assay type: biochemical
Procedure: Selectivity for PDE2, as compared to other PDE families, was assessed using the IMAP® technology. Human PDE10A2 enzyme was prepared from cytosolic fractions of transiently transfected HEK cells.
Assays for PDE 1 through 11 were performed in parallel at room temperature in 384-well microtiter plates with an incubation volume of 20.2 μL. Solutions of test compounds were prepared in DMSO and serially diluted with DMSO to yield 30 μL of each of ten solutions differing by 3-fold in concentration, at 32 serial dilutions per plate. […] A Labcyte POD 810 (Labcyte, Sunnyvale, Calif.) was used to dispense 200 nL from each well of the titration plate to make eleven copies of the assay plate for each titration, one copy for each PDE enzyme. A solution of each enzyme (dilution from aliquots, sufficient to produce 20% substrate conversion) and a separate solution of FAM-labeled cAMP or FAM-labeled cGMP from Molecular Devices (Sunnyvale, Calif., product # R7506 or cGMP#R7508), at a final concentration of 50 nM were made in the assay buffer (10 mM Tris HCl, pH 7.2, 10 mM MgCl2, 0.05% NaN3 0.01% Tween-20, and 1 mM DTT). Note that the substrate for PDE2 is 50 nM FAM cAMP containing 1000 nM of cGMP. The enzyme and the substrate were then added to the assay plates in two consecutive additions of 10 μL and then shaken to mix. The reaction was allowed to proceed at room temperature for 60 minutes. A binding solution was then made from the kit components, comprised of 80% Solution A, 20% Solution B and binding reagent at a volume of 1/600 the total binding solution. The enzymatic reaction was stopped by addition of 60 μL of the binding solution to each well of the assay plate. The plates were sealed and shaken for 10 seconds. The plates were incubated at room temperature for one hour, then the parallel and perpendicular fluorescence was measured using a Tecan Genios Pro plate reader (Tecan, Switzerland). […] The intrinsic PDE2 inhibitory activity of a compound which may be used in accordance with the present invention may be determined by these assays.

T1 sequence (O00408 1-920 isoform O00408-2): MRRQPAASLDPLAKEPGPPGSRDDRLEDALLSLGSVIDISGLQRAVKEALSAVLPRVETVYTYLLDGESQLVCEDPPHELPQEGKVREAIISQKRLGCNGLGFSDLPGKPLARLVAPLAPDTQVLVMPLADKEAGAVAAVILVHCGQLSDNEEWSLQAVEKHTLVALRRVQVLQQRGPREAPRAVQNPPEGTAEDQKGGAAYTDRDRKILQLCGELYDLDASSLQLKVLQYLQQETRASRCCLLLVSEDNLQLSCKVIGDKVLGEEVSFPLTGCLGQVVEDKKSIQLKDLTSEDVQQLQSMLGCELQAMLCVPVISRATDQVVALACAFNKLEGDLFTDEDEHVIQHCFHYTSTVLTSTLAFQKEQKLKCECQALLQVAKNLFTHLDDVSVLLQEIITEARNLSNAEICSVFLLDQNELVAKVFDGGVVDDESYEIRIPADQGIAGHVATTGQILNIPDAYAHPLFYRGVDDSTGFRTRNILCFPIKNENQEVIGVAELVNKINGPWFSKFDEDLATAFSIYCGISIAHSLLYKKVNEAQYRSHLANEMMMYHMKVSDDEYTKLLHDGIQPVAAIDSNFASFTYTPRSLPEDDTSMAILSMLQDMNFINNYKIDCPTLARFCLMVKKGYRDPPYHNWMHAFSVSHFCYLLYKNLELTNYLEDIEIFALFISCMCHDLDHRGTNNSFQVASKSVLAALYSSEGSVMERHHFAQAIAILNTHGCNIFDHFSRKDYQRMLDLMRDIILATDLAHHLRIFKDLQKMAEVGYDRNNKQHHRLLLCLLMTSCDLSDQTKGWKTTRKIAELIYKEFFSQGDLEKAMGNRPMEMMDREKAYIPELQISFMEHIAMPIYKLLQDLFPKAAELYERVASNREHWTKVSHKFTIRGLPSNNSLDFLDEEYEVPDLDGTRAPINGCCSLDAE

Row | Ki [nM] | SMILES
1 | 474 | COc1cc(C(F)(F)F)ccc1C(C)(C)Nc1cc(C)nc2ncnn12 [Example 48, N-{1-[2-Methoxy-4-(trifluoromethyl)phenyl]-1-methylethyl}-5-methyl [1,2,4]triazolo[1,5-a]pyrimidin-7-amine]
2 | 72 | Cc1cc(NC2(c3ccc(SC(F)(F)F)cc3)CC2)n2ncnc2n1 [Example 59, 5-Methyl-N-(1-{4-[(trifluoromethyl)sulfanyl]phenyl}cyclopropyl)[1,2,4]triazolo [1,5-a]pyrimidin-7-amine]
3 | 182 | Cc1cc(NC(C)(C)c2ccc(SC(F)(F)F)c(F)c2)n2ncnc2n1 [Example 50, N-(1-{3-Fluoro-4-[(trifluoromethyl)sulfanyl]phenyl}-1-methylethyl)-5-methyl[1,2,4]triazolo[1,5-a] pyrimidin-7-amine]
4 | 108 | CC(C)(C)[C@@H](Nc1cc(N)nc2ncnn12)c1ccc(C(F)(F)F)c(F)c1 [Example 240, (R)-N^7-(1-(3-Fluoro-4-(trifluoromethyl)phenyl)-2,2-dimethylpropyl)-[1,2,4]triazolo [1,5-a]pyrimidine-5,7-diamine]
5 | 583 | COCC(Nc1cc(C)nc2ncnn12)c1ccc(C(F)(F)F)c(F)c1 (single isomer, unassigned) [Example 210, (S)- or (R)-N-(1-(3-Fluoro-4-(trifluoromethyl)phenyl)-2-methoxyethyl)-5-methyl-[1,2,4]triazolo [1,5-a]pyrimidin-7-amine]
6 | > 2960 | Cc1cc(NC(c2ccc(OC(F)(F)F)c(F)c2)C(C)(C)O)n2nc(C)nc2n1 (single isomer, unassigned) [Example 132, (1S or R)-1-[(2,5-Dimethyl[1,2,4]triazolo[1,5-a]pyrimidin-7-yl)amino]-1-[3-fluoro-4-(trifluoromethoxy)phenyl]-2-methylpropan-2-ol]
7 | 4.3 | Cc1cc(N[C@@H](c2ccc(OC(F)(F)F)cc2Cl)C(C)(C)O)n2ncnc2n1 [Example 100, (1S)-1-[2-Chloro-4-(trifluoromethoxy)phenyl]-2-methyl-1-[(5-methyl[1,2,4]triazolo[1,5-a]pyrimidin-7-yl)amino]propan-2-ol]
8 | 101 | Cc1cc(NC2(c3ccc(C(F)(F)F)c(F)c3)CC2)n2ncnc2c1 [Example 263, N-(1-(3-Fluoro-4-(trifluoromethyl)phenyl)cyclopropyl)-7-methyl-[1,2,4]triazolo[1,5-a]pyridin-5-amine]
9 | 11 | Cc1cc(N[C@@H](c2ccc(C(F)(F)F)cc2)C(C)(C)C)n2ncnc2n1 [Example 26, N-{(1R)-2,2-Dimethyl-1-[4-(trifluoromethyl)phenyl]propyl}-5-methyl[1,2,4]triazolo[1,5-a] pyrimidin-7-amine]
10 | 52 | Cc1cc(NC2(c3ccc(S(F)(F)(F)(F)F)cc3)CC2)n2ncnc2n1 [Example 58, 5-Methyl-N-{1-[4-(pentafluoro-λ^6-sulfanyl)phenyl]cyclopropyl}[1,2,4] triazolo[1,5-a]pyrimidin-7-amine]
11 | 23 | Cc1cc(NC(c2ccc(C(F)(F)F)cc2F)C(C)(C)O)n2ncnc2n1 (single isomer, unassigned) [Example 115, (1R or S)-1-[2-Fluoro-4-(trifluoromethyl)phenyl]-2-methyl-1-[(5-methyl [1,2,4]triazolo [1,5-a]pyrimidin-7-yl)amino] propan-2-ol]
12 | 173 | Cc1cc(N[C@H](C)c2ccc(C3(C)CC3)cc2)n2ncnc2n1 [Example 15, 5-Methyl-N-{(1R)-1-[4-(1-methylcyclopropyl)phenyl]ethyl} [1,2,4]triazolo[1,5-a]pyrimidin-7-amine]
13 | 20 | Cc1cc(N[C@@H](c2ccc(C3CC3)c(F)c2)C2CC2)n2ncnc2n1 [Example 38, N-[(R)-Cyclopropyl(4-cyclopropyl-3-fluorophenyl)methyl]-5-methyl[1,2,4]triazolo[1,5-a] pyrimidin-7-amine]
14 | 131 | Cc1cc(NC2(c3ccc(C(F)(F)F)c(F)c3)CC2)n2nc(C(F)F)nc2n1 [Example 201, 2-(Difluoromethyl)-N-(1-(3-fluoro-4-(trifluoromethyl)phenyl)cyclopropyl)-5-methyl-[1,2,4]triazolo [1,5-a]pyrimidin-7-amine]
15 | 10 | Cc1cc(N[C@@H](c2ccc(C(F)(F)F)c(F)c2)C(C)(C)C)n2ncnc2n1 [Example 27, N-{(1R)-1-[3-Fluoro-4-(trifluoromethyl)phenyl]-2,2-dimethylpropyl}-5-methyl[1,2,4]triazolo[1,5-a] pyrimidin-7-amine]
16 | > 2960 | CC(C)(O)C(Nc1cc(C(F)F)nc2ncnn12)c1ccc(C(F)(F)F)c(F)c1 (single isomer, unassigned) [Example 228, (S)- or (R)-1-(5-(Difluoromethyl)-[1,2,4]triazolo [1,5-a]pyrimidin-7-ylamino)-1-(3-fluoro-4-(trifluoromethyl)phenyl)-2-methylpropan-2-ol]
17 | 201 | COCc1cc(NC2(c3ccc(C(F)(F)F)c(F)c3)CC2)n2ncnc2n1 [Example 75, N-{1-[3-Fluoro-4-(trifluoromethyl)phenyl]cyclopropyl}-5-(methoxymethyl) [1,2,4]triazolo[1,5-a]pyrimidin-7-amine]

More lines, now with the values behind:

Row | SMILES | Ki [nM]
18 | Cc1cc(N[C@@H](c2ccc(C3CC3)cc2)C(C)(C)C)n2ncnc2n1 [Example 30, N-[(1R)-1-(4-Cyclopropyl-phenyl)-2,2-dimethylpropyl]-5-methyl[1,2,4]triazolo[1,5-a] pyrimidin-7-amine] | 4.4
19 | CC(C)(O)[C@@H](Nc1cc(C(F)(F)F)nc2ncnn12)c1ccc(S(F)(F)(F)(F)F)cc1 (single isomer, unassigned) [Example 177] | 8.4
20 | CC(C)(O)[C@@H](Nc1cncc2ncnn12)c1ccc(OC(F)(F)F)c(F)c1 [Example 286, (1S)-1-[3-Fluoro-4-(trifluoromethoxy)phenyl]-2-methyl-1-([1,2,4]triazolo[1,5-a]pyrazin-5-ylamino)propan-2-ol] | 209
21 | Cc1cc(NC(c2cc3ccccc3n2C)C(C)(C)O)n2ncnc2n1 (single isomer, unassigned) [Example 125, (1R or S)-2-Methyl-1-(1-methyl-1H-indol-2-yl)-1-[(5-methyl [1,2,4]triazolo [1,5-a]pyrimidin-7-yl)amino] propan-2-ol] | > 2960
22 | Cc1cc(NC(c2ccc(CC(F)(F)F)cc2)C(C)(C)O)n2ncnc2n1 (single isomer, unassigned) [Example 119, (1R or S)-2-Methyl-1-[(5-methyl [1,2,4]triazolo [1,5-a]pyrimidin-7-yl)amino]-1-[4-(2,2,2-trifluoroethyl)phenyl]propan-2-ol] | 15
23 | C[C@@H](Nc1cncc2ncnn12)c1ccc(C(F)(F)F)cc1 [Example 288] | 221
24 | CC(C)(O)C(Nc1cc(C(F)(F)F)nc2ncnn12)c1ccc(C(F)F)cc1 (single isomer, unassigned) [Example 163, (1S or R)-1-[4-(Difluoromethyl)phenyl]-2-methyl-1-{[5-(trifluoromethyl) [1,2,4]triazolo [1,5-a]pyrimidin-7-yl]amino} propan-2-ol] | 77
25 | Cc1cc(O[C@H](c2ccc(C(F)(F)F)cc2)C(C)(C)C)n2ncnc2n1 (single isomer, unassigned) [Example 261] | > 2960
26 | Cc1cc(NC(c2ccc(S(F)(F)(F)(F)F)cc2)C(C)(C)O)n2ncnc2n1 (single isomer, unassigned) [Example 116, (1S or R)-2-Methyl-1-[(5-methyl[1,2,4]triazolo[1,5-a]pyrimidin-7-yl)amino]-1-[4-(pentafluoro-λ^6-sulfanyl)phenyl] propan-2-ol] | > 2960
27 | CC(C)(O)C(Nc1cc(C(F)(F)F)nc2ncnn12)c1ccc2c(c1)OC(F)(F)O2 (single isomer, unassigned) [Example 168, (1R or S)-1-(2,2-Difluoro-1,3-benzodioxol-5-yl)-2-methyl-1-{[5-(trifluoromethyl) [1,2,4]triazolo [1,5-a]pyrimidin-7-yl]amino} propan-2-ol] | > 2960
28 | CC(C)(O)C(Nc1cc(C(F)F)nc2ncnn12)c1ccc(OC(F)F)cc1Cl (single isomer, unassigned) [Example 184, (1R or S)-[2-Chloro-4-(difluoromethoxy)phenyl]-1-{[5-(difluoromethyl) [1,2,4]triazolo [1,5-a]pyrimidin-7-yl]amino}-2-methylpropan-2-ol] | 68
29 | Cc1cc(NC(c2ccc(C3(C)CC3)cc2)C(C)(C)O)n2ncnc2n1 (single isomer, unassigned) [Example 120, (1S or R)-2-Methyl-1-[4-(1-methyl-cyclopropyl)phenyl]-1-[(5-methyl[1,2,4]triazolo[1,5-a]pyrimidin-7-yl)amino]propan-2-ol] | > 2960
